From US20030228365A1, “Pharmaceutical formulation” (priority 2002, published 2003)
Where a SMILES comes first, the peptide text is derived from it.

Description: A sample of the compound of formula (Ia) in PLG gel was dissolved in aqueous acetonitrile and further diluted with water. The precipitated polymer was subsequently removed by filtration through a membrane filter. The concentration of the compound of formula (Ia) in the filtrate was determined by HPLC.

CCC[C@H](NC(=O)[C@@H](NC(=O)[C@H](NC(=O)[C@@H](NC(=O)CNC(=O)CN(C)C(C)=O)C(C)C)[C@H](C)CC)[C@@H](C)O)C(=O)N[C@H](C(=O)N[C@@H](CCCN=C(N)N)C(=O)N1CCC[C@H]1C(=O)NCC)[C@@H](C)CC [compound of formula (Ia), N-Ac-Sar-Gly-Val-DIle-Thr-Nva-Ile-Arg-ProNHCH2CH3] (HELM PEPTIDE1{[ac].[Sar].G.V.[dI].T.[Nva].I.R.P.[CCN[*:1]]}$$$$V2.0)
degradation found by HPLC: no extensive degradation
